Source: ChEMBL document CHEMBL1141575, “Preparation and in vitro biological evaluation of tetrapyrrole ethanolamide derivatives as potential anticancer agents” (Bioorg Med Chem Lett, 2008)

How the values were obtained:
Daudi = assay: Cytotoxicity against human Daudi cells under deem light after 96 hrs by MTT assay; format: functional, cell-based
[1] = Survival of human 2780.9S cells at 100 uM under deem light after 96 hrs by MTT assay relative to control; format: functional; settings: read-out: Survival
NCI-H69 [2] = assay: Survival of human H69 cells at 100 uM under deem light after 96 hrs by MTT assay relative to control; format: functional; settings: NCI-H69, 96 h, read-out: Survival
Raji [3] = assay: Survival of human Raji cells at 0.1 uM under deem light after 96 hrs by MTT assay relative to control; format: functional; settings: read-out: Survival
HeLa [4] = assay: Survival of human HeLa cells at 10 uM under deem light after 96 hrs by MTT assay relative to control; format: functional; settings: read-out: Survival
K562 [5] = assay: Cytotoxicity against human K562 cells under deem light after 96 hrs by MTT assay; format: functional, cell-based; settings: K562, 96 h
HeLa [6] = assay: Cytotoxicity against human HeLa cells under deem light after 96 hrs by MTT assay; format: functional, cell-based
SiHa [7] = assay: Survival of human SIHA cells at 10 uM under deem light after 96 hrs by MTT assay relative to control; format: functional; settings: read-out: Survival
SiHa [8] = assay: Survival of human SIHA cells at 1 uM under deem light after 96 hrs by MTT assay relative to control; format: functional; settings: read-out: Survival
[9] = Survival of human MDA-MB cells at 0.1 uM under deem light after 96 hrs by MTT assay relative to control; format: functional; settings: read-out: Survival
[10] = Survival of human 2780.9S cells at 0.1 uM under deem light after 96 hrs by MTT assay relative to control; format: functional; settings: read-out: Survival
[11] = Survival of human H209 cells at 10 uM under deem light after 96 hrs by MTT assay relative to control; format: functional; settings: NCI-H209, 96 h, read-out: Survival
[12] = Photohemolysis in human RBC assessed as concentration required to 50% hemolysis under light exposure for 10 mins; format: ADME, cell-based, Erythrocyte; settings: human red blood cells, read-out: Activity
[13] = Cytotoxicity against human 2780.9S cells under deem light after 96 hrs by MTT assay; format: functional, cell-based
[14] = Survival of human 2780.9S cells at 1 uM under deem light after 96 hrs by MTT assay relative to control; format: functional; settings: read-out: Survival
HeLa [15] = assay: Survival of human HeLa cells at 1 uM under deem light after 96 hrs by MTT assay relative to control; format: functional; settings: read-out: Survival
NCI-H69 [16] = assay: Survival of human H69 cells at 50 uM under deem light after 96 hrs by MTT assay relative to control; format: functional; settings: NCI-H69, 96 h, read-out: Survival
K562 [17] = assay: Survival of human K562 cells at 0.1 uM under deem light after 96 hrs by MTT assay relative to control; format: functional; settings: K562, 96 h, read-out: Survival
SiHa [18] = assay: Cytotoxicity against human SIHA cells under deem light after 96 hrs by MTT assay; format: functional, cell-based
Raji [19] = assay: Survival of human Raji cells at 50 uM under deem light after 96 hrs by MTT assay relative to control; format: functional; settings: read-out: Survival
NCI-H69 [20] = assay: Survival of human H69 cells at 1 uM under deem light after 96 hrs by MTT assay relative to control; format: functional; settings: NCI-H69, 96 h, read-out: Survival
[21] = Survival of human 2780.9S cells at 50 uM under deem light after 96 hrs by MTT assay relative to control; format: functional; settings: read-out: Survival
HeLa [22] = assay: Survival of human HeLa cells at 100 uM under deem light after 96 hrs by MTT assay relative to control; format: functional; settings: read-out: Survival
Raji [23] = assay: Survival of human Raji cells at 10 uM under deem light after 96 hrs by MTT assay relative to control; format: functional; settings: read-out: Survival
[24] = Cytotoxicity against human MDA-MB cells under deem light after 96 hrs by MTT assay; format: functional, cell-based
[25] = Photohemolysis in human RBC at 190 nM under exposure to light for 10 mins; format: ADME, cell-based, Erythrocyte; settings: human red blood cells, read-out: Activity
[26] = Survival of human H209 cells at 50 uM under deem light after 96 hrs by MTT assay relative to control; format: functional; settings: NCI-H209, 96 h, read-out: Survival
NCI-H69 [27] = assay: Survival of human H69 cells at 10 uM under deem light after 96 hrs by MTT assay relative to control; format: functional; settings: NCI-H69, 96 h, read-out: Survival
[28] = Survival of human H209 cells at 0.1 uM under deem light after 96 hrs by MTT assay relative to control; format: functional; settings: NCI-H209, 96 h, read-out: Survival
NCI-H69 [29] = assay: Survival of human H69 cells at 0.1 uM under deem light after 96 hrs by MTT assay relative to control; format: functional; settings: NCI-H69, 96 h, read-out: Survival
[30] = Survival of human MDA-MB cells at 100 uM under deem light after 96 hrs by MTT assay relative to control; format: functional; settings: read-out: Survival
SiHa [31] = assay: Survival of human SIHA cells at 50 uM under deem light after 96 hrs by MTT assay relative to control; format: functional; settings: read-out: Survival
[32] = Survival of human H209 cells at 1 uM under deem light after 96 hrs by MTT assay relative to control; format: functional; settings: NCI-H209, 96 h, read-out: Survival
[33] = Photohemolysis in human RBC at 250 nM in absence of light; format: ADME, cell-based, Erythrocyte; settings: human red blood cells, read-out: Activity
Raji [34] = assay: Cytotoxicity against human Raji cells under deem light after 96 hrs by MTT assay; format: functional, cell-based
SiHa [35] = assay: Survival of human SIHA cells at 100 uM under deem light after 96 hrs by MTT assay relative to control; format: functional; settings: read-out: Survival
Raji [36] = assay: Survival of human Raji cells at 100 uM under deem light after 96 hrs by MTT assay relative to control; format: functional; settings: read-out: Survival
NCI-H69 [37] = assay: Cytotoxicity against human H69 cells under deem light after 96 hrs by MTT assay; format: functional, cell-based; settings: NCI-H69, 96 h
[38] = Survival of human MDA-MB cells at 1 uM under deem light after 96 hrs by MTT assay relative to control; format: functional; settings: read-out: Survival
K562 [39] = assay: Survival of human K562 cells at 1 uM under deem light after 96 hrs by MTT assay relative to control; format: functional; settings: K562, 96 h, read-out: Survival
K562 [40] = assay: Survival of human K562 cells at 100 uM under deem light after 96 hrs by MTT assay relative to control; format: functional; settings: K562, 96 h, read-out: Survival
[41] = Survival of human MDA-MB cells at 50 uM under deem light after 96 hrs by MTT assay relative to control; format: functional; settings: read-out: Survival
K562 [42] = assay: Survival of human K562 cells at 10 uM under deem light after 96 hrs by MTT assay relative to control; format: functional; settings: K562, 96 h, read-out: Survival
[43] = Survival of human MDA-MB cells at 10 uM under deem light after 96 hrs by MTT assay relative to control; format: functional; settings: read-out: Survival
Raji [44] = assay: Survival of human Raji cells at 1 uM under deem light after 96 hrs by MTT assay relative to control; format: functional; settings: read-out: Survival
HeLa [45] = assay: Survival of human HeLa cells at 50 uM under deem light after 96 hrs by MTT assay relative to control; format: functional; settings: read-out: Survival
[46] = Survival of human H209 cells at 100 uM under deem light after 96 hrs by MTT assay relative to control; format: functional; settings: NCI-H209, 96 h, read-out: Survival
[47] = Photohemolysis in human RBC assessed as concentration required to 50% hemolysis under light exposure for 5 mins; format: ADME, cell-based, Erythrocyte; settings: human red blood cells, read-out: Activity
K562 [48] = assay: Survival of human K562 cells at 50 uM under deem light after 96 hrs by MTT assay relative to control; format: functional; settings: K562, 96 h, read-out: Survival
HeLa [49] = assay: Survival of human HeLa cells at 0.1 uM under deem light after 96 hrs by MTT assay relative to control; format: functional; settings: read-out: Survival
[50] = Survival of human 2780.9S cells at 10 uM under deem light after 96 hrs by MTT assay relative to control; format: functional; settings: read-out: Survival

## C=Cc1c(C)c2cc3nc(c(CC(=O)OC)c4[nH]c(cc5nc(cc1[nH]2)C(C)=C5CC)c(C)c4C(=O)NCCO)C(CCC(=O)OC)C3C (stereo unspecified) [PHEOPHORBIDE A ETHANOLAMIDE]
Daudi
  IC50: 35 µM
[1]
  viability at 100 µM: 1.7%
NCI-H69 [2]
  viability at 100 µM: 14.4%
Raji [3]
  viability at 0.1 µM: 118%
HeLa [4]
  viability at 10 µM: 113%
K562 [5]
  IC50: 35 µM
HeLa [6]
  IC50: 35 µM
SiHa [7]
  viability at 10 µM: 99.9%
SiHa [8]
  viability at 1 µM: 97.8%
[9]
  viability at 0.1 µM: 110%
[10]
  viability at 0.1 µM: 98.8%
[11]
  viability at 10 µM: 106%
[12]
  HC50 at 10 min: 140 nM
[13]
  IC50: 35 µM
[14]
  viability at 1 µM: 117%
HeLa [15]
  viability at 1 µM: 114%
NCI-H69 [16]
  viability at 50 µM: 58.7%
K562 [17]
  viability at 0.1 µM: 129%
SiHa [18]
  IC50: 35 µM
Raji [19]
  viability at 50 µM: 2.5%
NCI-H69 [20]
  viability at 1 µM: 101%
[21]
  viability at 50 µM: 1.7%
HeLa [22]
  viability at 100 µM: 7.8%
Raji [23]
  viability at 10 µM: 121%
[24]
  IC50: 35 µM
[25]
  hemolysis at 10 min, 0.19 µM: 100%
[26]
  viability at 50 µM: 59.4%
NCI-H69 [27]
  viability at 10 µM: 98.4%
[28]
  viability at 0.1 µM: 102%
NCI-H69 [29]
  viability at 0.1 µM: 95.7%
[30]
  viability at 100 µM: 1.6%
SiHa [31]
  viability at 50 µM: 1.2%
[32]
  viability at 1 µM: 102%
[33]
  hemolysis at 0.25 µM: 17%
Raji [34]
  IC50: 35 µM
SiHa [35]
  viability at 100 µM: 1.1%
Raji [36]
  viability at 100 µM: 3.3%
NCI-H69 [37]
  IC50: 55 µM
[38]
  viability at 1 µM: 121%
K562 [39]
  viability at 1 µM: 113%
K562 [40]
  viability at 100 µM: 2.9%
[41]
  viability at 50 µM: 1.6%
K562 [42]
  viability at 10 µM: 115%
[43]
  viability at 10 µM: 107%
Raji [44]
  viability at 1 µM: 119%
HeLa [45]
  viability at 50 µM: 6.3%
[46]
  viability at 100 µM: 5.2%
[47]
  HC50 at 5 min: 80 nM
K562 [48]
  viability at 50 µM: 6.1%
HeLa [49]
  viability at 0.1 µM: 126%
[50]
  viability at 10 µM: 99%
